{"source": "ChEMBL document CHEMBL5723582", "about": "“Data for DCP probe T-10430” (2024)", "key": {"[1]": {"target": "Type-1 angiotensin II receptor (Homo sapiens, UniProt P30556)", "assay": "IP-One assay (AGTR1), agonist mode at up to 50 µM", "assay_type": "functional", "parameters": "compound concentration < 50 uM"}, "[2]": {"target": "Adenosine receptor A1 (Homo sapiens) (UniProt P30542)", "assay": "RLU of ADORA1 at 1.0 µM in the […] PRESTO-Tango GPCRome screen", "conditions": "Compound concentration 1.0 uM; call rule not given here"}, "[3]": {"target": "C3a anaphylatoxin chemotactic receptor (Homo sapiens) (UniProt Q16581)", "sequence (Q16581 whole entry)": "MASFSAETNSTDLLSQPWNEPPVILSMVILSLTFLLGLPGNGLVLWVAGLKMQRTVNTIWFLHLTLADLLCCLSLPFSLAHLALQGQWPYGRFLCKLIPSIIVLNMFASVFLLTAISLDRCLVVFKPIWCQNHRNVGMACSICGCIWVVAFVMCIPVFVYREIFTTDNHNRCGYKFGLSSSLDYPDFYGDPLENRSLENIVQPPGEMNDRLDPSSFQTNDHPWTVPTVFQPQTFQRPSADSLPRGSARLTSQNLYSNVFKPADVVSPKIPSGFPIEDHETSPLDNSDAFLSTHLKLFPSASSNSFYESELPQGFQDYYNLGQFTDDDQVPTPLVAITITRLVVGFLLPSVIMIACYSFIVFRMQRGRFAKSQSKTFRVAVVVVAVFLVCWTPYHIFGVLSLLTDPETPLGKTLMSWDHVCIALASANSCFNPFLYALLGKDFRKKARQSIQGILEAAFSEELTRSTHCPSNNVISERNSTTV", "assay": "RLU of C3AR1 at 1.0 µM in the […] PRESTO-Tango GPCRome screen", "conditions": "Compound concentration 1.0 uM"}, "[4]": {"target": "C-C chemokine receptor type 8 (Homo sapiens) (UniProt P51685)", "assay": "RLU of CCR8 at 1.0 µM in the […] PRESTO-Tango GPCRome screen", "conditions": "Compound concentration 1.0 uM"}, "[5]": {"target": "Muscarinic acetylcholine receptor M1 (Homo sapiens) (UniProt P11229)", "sequence (P11229 whole entry)": "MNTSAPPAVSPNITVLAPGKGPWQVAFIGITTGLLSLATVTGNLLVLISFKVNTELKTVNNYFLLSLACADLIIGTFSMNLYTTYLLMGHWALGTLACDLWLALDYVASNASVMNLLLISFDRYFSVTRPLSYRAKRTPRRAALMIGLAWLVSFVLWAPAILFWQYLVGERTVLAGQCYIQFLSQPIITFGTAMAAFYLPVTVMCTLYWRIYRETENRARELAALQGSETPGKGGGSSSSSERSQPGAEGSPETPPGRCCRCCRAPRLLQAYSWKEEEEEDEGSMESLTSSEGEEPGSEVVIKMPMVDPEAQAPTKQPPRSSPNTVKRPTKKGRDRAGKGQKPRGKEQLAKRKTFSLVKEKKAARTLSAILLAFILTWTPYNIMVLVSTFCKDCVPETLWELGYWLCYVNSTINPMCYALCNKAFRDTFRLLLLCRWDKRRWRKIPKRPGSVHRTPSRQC", "assay": "RLU of CHRM1 at 1.0 µM in the […] PRESTO-Tango GPCRome screen", "conditions": "Compound concentration 1.0 uM"}, "[6]": {"target": "Chemerin-like receptor 1 (Homo sapiens) (UniProt Q99788)", "sequence (Q99788 whole entry)": "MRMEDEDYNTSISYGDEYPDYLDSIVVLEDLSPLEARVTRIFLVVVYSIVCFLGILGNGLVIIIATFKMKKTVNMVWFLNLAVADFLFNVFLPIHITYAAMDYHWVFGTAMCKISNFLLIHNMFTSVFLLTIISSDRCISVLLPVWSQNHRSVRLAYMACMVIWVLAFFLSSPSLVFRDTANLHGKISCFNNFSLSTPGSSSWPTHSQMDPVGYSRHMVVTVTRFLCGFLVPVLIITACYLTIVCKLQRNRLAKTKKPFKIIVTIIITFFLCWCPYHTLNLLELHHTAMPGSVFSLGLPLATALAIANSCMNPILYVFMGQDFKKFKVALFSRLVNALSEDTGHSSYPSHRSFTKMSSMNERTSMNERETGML", "assay": "RLU of CMKLR1 at 1.0 µM in the […] PRESTO-Tango GPCRome screen", "conditions": "Compound concentration 1.0 uM"}, "[7]": {"target": "D(4) dopamine receptor (Homo sapiens) (UniProt P21917)", "assay": "RLU of DRD4 at 1.0 µM in the […] PRESTO-Tango GPCRome screen", "conditions": "Compound concentration 1.0 uM"}, "[8]": {"target": "Free fatty acid receptor 3 (Homo sapiens) (UniProt O14843)", "assay": "RLU of FFA3 (GPR41) at 1.0 µM in the […] PRESTO-Tango GPCRome screen", "conditions": "Compound concentration 1.0 uM"}, "[9]": {"target": "Galanin receptor type 1 (Homo sapiens) (UniProt P47211)", "assay": "RLU of GAL1 at 1.0 µM in the […] PRESTO-Tango GPCRome screen", "conditions": "Compound concentration 1.0 uM"}, "[10]": {"target": "G-protein coupled estrogen receptor 1 (Homo sapiens) (UniProt Q99527)", "sequence (Q99527 whole entry)": "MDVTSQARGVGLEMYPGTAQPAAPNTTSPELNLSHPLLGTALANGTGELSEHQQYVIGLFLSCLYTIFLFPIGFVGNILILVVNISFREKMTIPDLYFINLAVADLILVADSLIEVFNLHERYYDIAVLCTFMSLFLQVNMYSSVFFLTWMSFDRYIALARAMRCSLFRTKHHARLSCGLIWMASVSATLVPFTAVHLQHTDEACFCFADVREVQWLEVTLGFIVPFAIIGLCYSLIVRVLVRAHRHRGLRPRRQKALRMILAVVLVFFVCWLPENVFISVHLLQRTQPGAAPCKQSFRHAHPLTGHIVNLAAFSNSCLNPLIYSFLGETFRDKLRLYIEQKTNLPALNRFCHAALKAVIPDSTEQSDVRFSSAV", "assay": "RLU of GPER at 1.0 µM in the […] PRESTO-Tango GPCRome screen", "conditions": "Compound concentration 1.0 uM"}, "[11]": {"target": "Probable G-protein coupled receptor 160 (Homo sapiens) (UniProt Q9UJ42)", "assay": "RLU of GPR160 at 1.0 µM in the […] PRESTO-Tango GPCRome screen", "conditions": "Compound concentration 1.0 uM"}, "[12]": {"target": "N-arachidonyl glycine receptor (Homo sapiens) (UniProt Q14330)", "sequence (Q14330 whole entry)": "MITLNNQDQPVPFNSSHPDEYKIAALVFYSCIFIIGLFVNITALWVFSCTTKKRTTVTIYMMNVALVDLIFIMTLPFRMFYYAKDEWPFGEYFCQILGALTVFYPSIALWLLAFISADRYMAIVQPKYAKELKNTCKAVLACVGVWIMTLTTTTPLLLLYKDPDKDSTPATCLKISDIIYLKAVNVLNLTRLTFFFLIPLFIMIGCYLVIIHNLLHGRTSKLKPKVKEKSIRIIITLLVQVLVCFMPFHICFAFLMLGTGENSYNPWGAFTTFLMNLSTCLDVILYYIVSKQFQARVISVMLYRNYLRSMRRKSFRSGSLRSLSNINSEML", "assay": "RLU of GPR18 at 1.0 µM in the […] PRESTO-Tango GPCRome screen", "conditions": "Compound concentration 1.0 uM"}, "[13]": {"target": "G-protein coupled receptor 20 (Homo sapiens) (UniProt Q99678)", "assay": "RLU of GPR20 at 1.0 µM in the […] PRESTO-Tango GPCRome screen", "conditions": "Compound concentration 1.0 uM"}, "[14]": {"target": "Probable G-protein coupled receptor 34 (Homo sapiens) (UniProt Q9UPC5)", "sequence (Q9UPC5 whole entry)": "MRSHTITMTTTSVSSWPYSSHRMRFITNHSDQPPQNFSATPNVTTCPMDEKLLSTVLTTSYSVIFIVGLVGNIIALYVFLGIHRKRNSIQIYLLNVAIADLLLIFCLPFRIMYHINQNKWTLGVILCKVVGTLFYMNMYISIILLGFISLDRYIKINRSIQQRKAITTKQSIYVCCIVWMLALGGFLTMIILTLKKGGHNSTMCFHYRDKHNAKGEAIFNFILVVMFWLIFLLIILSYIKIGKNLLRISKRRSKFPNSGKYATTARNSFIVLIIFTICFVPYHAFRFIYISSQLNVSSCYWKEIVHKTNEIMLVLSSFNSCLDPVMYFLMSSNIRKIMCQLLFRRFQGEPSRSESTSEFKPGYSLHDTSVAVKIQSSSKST", "assay": "RLU of GPR34 at 1.0 µM in the […] PRESTO-Tango GPCRome screen", "conditions": "Compound concentration 1.0 uM"}, "[15]": {"target": "G-protein coupled receptor 52 (Homo sapiens) (UniProt Q9Y2T5)", "assay": "RLU of GPR52 at 1.0 µM in the […] PRESTO-Tango GPCRome screen", "conditions": "Compound concentration 1.0 uM"}, "[16]": {"target": "G-protein coupled receptor 87 (Homo sapiens) (UniProt Q9BY21)", "assay": "RLU of GPR87 at 1.0 µM in the […] PRESTO-Tango GPCRome screen", "conditions": "Compound concentration 1.0 uM"}, "[17]": {"target": "Hydroxycarboxylic acid receptor 1 (Homo sapiens) (UniProt Q9BXC0)", "assay": "RLU of HCA1 at 1.0 µM in the Aequorin PRESTO-Tango GPCRome screen", "conditions": "Compound concentration 1.0 uM"}, "[18]": {"target": "Hydroxycarboxylic acid receptor 2 (Homo sapiens) (UniProt Q8TDS4)", "assay": "RLU of HCA2 at 1.0 µM in the Aequorin PRESTO-Tango GPCRome screen", "conditions": "Compound concentration 1.0 uM"}, "[19]": {"target": "Histamine H3 receptor (Homo sapiens) (UniProt Q9Y5N1)", "assay": "RLU of HRH3 at 1.0 µM in the Aequorin PRESTO-Tango GPCRome screen", "conditions": "Compound concentration 1.0 uM"}, "[20]": {"target": "KiSS-1 receptor (Homo sapiens) (UniProt Q969F8)", "sequence (Q969F8 whole entry)": "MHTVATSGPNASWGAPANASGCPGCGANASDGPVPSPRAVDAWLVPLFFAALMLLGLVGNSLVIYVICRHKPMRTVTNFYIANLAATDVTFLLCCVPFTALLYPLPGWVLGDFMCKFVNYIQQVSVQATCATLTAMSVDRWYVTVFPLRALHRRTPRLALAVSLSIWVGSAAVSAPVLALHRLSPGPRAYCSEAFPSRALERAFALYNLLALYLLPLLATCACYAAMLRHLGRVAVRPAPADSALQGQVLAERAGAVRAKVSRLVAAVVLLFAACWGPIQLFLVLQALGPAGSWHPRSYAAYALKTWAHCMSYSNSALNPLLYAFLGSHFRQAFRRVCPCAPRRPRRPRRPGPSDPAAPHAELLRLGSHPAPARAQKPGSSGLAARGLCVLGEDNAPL", "assay": "RLU of KISSPEPTIN at 1.0 µM in the […] PRESTO-Tango GPCRome screen", "conditions": "Compound concentration 1.0 uM"}, "[21]": {"target": "Lysophosphatidic acid receptor 6 (Homo sapiens) (UniProt P43657)", "assay": "RLU of LPAR6 at 1.0 µM in the […] PRESTO-Tango GPCRome screen", "conditions": "Compound concentration 1.0 uM"}, "[22]": {"target": "Leukotriene B4 receptor 1 (Homo sapiens, UniProt Q15722)", "assay": "RLU of LTB4R at 1.0 µM in the […] PRESTO-Tango GPCRome screen", "conditions": "Compound concentration 1.0 uM"}, "[23]": {"target": "Mas-related G-protein coupled receptor member E (Homo sapiens) (UniProt Q86SM8)", "assay": "RLU of MRGPRE at 1.0 µM in the […] PRESTO-Tango GPCRome screen", "conditions": "Compound concentration 1.0 uM"}, "[24]": {"target": "Mas-related G-protein coupled receptor member X4 (Homo sapiens) (UniProt Q96LA9)", "assay": "RLU of MRGPRX4 at 1.0 µM in the […] PRESTO-Tango GPCRome screen", "conditions": "Compound concentration 1.0 uM"}, "[25]": {"target": "Neuropeptides B/W receptor type 1 (Homo sapiens) (UniProt P48145)", "assay": "RLU of NPBW1 at 1.0 µM in the […] PRESTO-Tango GPCRome screen", "conditions": "Compound concentration 1.0 uM"}, "[26]": {"target": "Neuropeptide Y receptor type 5 (Homo sapiens) (UniProt Q15761)", "assay": "RLU of NPY5R at 1.0 µM in the […] PRESTO-Tango GPCRome screen", "conditions": "Compound concentration 1.0 uM"}, "[27]": {"target": "Prokineticin receptor 2 (Homo sapiens) (UniProt Q8NFJ6)", "assay": "RLU of PK2 at 1.0 µM in the […] PRESTO-Tango GPCRome screen", "conditions": "Compound concentration 1.0 uM"}, "[28]": {"target": "Prostaglandin D2 receptor (Homo sapiens) (UniProt Q13258)", "sequence (Q13258 whole entry)": "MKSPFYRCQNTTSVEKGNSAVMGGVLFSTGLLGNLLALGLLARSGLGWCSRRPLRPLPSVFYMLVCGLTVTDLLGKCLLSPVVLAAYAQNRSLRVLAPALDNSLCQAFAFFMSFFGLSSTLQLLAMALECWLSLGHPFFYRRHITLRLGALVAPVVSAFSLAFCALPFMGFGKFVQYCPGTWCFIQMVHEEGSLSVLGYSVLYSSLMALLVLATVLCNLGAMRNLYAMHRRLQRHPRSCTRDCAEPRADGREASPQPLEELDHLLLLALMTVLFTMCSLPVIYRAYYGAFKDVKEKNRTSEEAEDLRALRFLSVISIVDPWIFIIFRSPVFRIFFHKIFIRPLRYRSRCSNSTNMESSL", "assay": "RLU of PTGDR at 1.0 µM in the […] PRESTO-Tango GPCRome screen", "conditions": "Compound concentration 1.0 uM"}, "[29]": {"target": "Prostaglandin E2 receptor EP1 subtype (Homo sapiens) (UniProt P34995)", "sequence (P34995 whole entry)": "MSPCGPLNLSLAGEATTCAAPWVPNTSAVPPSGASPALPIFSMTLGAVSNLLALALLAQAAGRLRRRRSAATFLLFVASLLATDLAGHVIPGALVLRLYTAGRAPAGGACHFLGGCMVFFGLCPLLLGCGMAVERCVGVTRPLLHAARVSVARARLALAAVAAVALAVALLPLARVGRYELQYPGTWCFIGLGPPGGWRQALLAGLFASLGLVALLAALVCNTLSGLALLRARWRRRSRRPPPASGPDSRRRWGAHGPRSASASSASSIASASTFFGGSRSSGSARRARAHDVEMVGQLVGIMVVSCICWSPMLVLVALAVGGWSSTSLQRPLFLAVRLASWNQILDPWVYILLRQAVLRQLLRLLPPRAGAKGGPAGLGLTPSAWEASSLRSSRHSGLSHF", "assay": "RLU of PTGER1 at 1.0 µM in the […] PRESTO-Tango GPCRome screen", "conditions": "Compound concentration 1.0 uM"}, "[30]": {"target": "Prostaglandin E2 receptor EP3 subtype (Homo sapiens) (UniProt P43115)", "assay": "RLU of PTGER3 at 1.0 µM in the […] PRESTO-Tango GPCRome screen", "conditions": "Compound concentration 1.0 uM"}, "[31]": {"target": "Prostaglandin E2 receptor EP4 subtype (Homo sapiens) (UniProt P35408)", "assay": "RLU of PTGER4 at 1.0 µM in the […] PRESTO-Tango GPCRome screen", "conditions": "Compound concentration 1.0 uM"}, "[32]": {"target": "Parathyroid hormone 2 receptor (Homo sapiens) (UniProt P49190)", "sequence (P49190 whole entry)": "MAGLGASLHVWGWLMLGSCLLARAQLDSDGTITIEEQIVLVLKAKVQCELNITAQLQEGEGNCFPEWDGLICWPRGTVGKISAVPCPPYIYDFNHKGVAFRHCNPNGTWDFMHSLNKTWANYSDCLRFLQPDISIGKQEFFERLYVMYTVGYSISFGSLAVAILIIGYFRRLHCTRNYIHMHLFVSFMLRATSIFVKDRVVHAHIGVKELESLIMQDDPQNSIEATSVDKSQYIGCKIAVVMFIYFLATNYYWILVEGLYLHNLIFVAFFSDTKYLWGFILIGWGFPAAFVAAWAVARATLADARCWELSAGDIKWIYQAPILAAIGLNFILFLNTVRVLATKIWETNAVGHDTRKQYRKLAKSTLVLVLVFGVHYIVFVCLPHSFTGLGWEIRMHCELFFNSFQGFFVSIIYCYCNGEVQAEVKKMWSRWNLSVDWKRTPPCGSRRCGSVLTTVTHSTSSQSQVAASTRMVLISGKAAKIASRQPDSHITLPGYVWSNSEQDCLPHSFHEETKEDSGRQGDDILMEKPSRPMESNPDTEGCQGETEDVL", "assay": "RLU of PTH2R at 1.0 µM in the […] PRESTO-Tango GPCRome screen", "conditions": "Compound concentration 1.0 uM"}, "[33]": {"target": "Sphingosine 1-phosphate receptor 4 (Homo sapiens) (UniProt O95977)", "sequence (O95977 whole entry)": "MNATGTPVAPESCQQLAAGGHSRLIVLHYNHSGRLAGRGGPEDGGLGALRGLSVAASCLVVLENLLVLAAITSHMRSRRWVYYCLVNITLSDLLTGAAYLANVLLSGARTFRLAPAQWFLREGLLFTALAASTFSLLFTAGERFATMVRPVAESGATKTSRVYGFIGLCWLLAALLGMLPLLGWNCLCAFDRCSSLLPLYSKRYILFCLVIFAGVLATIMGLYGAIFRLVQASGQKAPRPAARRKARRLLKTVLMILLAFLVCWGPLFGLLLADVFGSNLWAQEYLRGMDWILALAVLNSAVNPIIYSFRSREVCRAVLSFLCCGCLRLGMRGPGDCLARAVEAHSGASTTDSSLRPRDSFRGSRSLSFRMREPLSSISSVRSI", "assay": "RLU of S1PR4 at 1.0 µM in the […] PRESTO-Tango GPCRome screen", "conditions": "Compound concentration 1.0 uM"}, "[34]": {"target": "Trace amine-associated receptor 2 (Homo sapiens) (UniProt Q9P1P5)", "assay": "RLU of TAAR2 at 1.0 µM in the […] PRESTO-Tango GPCRome screen", "conditions": "Compound concentration 1.0 uM"}, "[35]": {"target": "Substance-K receptor (Homo sapiens) (UniProt P21452)", "sequence (P21452 whole entry)": "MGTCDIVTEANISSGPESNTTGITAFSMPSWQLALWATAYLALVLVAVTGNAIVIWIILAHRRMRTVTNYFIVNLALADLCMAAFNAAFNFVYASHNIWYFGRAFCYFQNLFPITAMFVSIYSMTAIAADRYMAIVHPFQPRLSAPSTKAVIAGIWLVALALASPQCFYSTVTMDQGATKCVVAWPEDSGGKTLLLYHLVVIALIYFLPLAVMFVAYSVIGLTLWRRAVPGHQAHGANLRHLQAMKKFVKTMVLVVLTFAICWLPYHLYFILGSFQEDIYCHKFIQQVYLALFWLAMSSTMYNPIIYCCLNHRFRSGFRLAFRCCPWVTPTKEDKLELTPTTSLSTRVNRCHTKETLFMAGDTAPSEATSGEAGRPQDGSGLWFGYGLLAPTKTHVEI", "assay": "RLU of TACR2 at 1.0 µM in the […] PRESTO-Tango GPCRome screen", "conditions": "Compound concentration 1.0 uM"}}}
{"smiles": "CCCCC(=O)N1CC2(C1)CN(c1ccccc1-c1nnn[nH]1)C2", "values": [{"measurement": "EC50", "setting": "[1]", "value": "> 50 µM (not active)"}, {"measurement": "RLU", "setting": "[2]", "value": 6200}, {"measurement": "RLU", "setting": "[3]", "value": 4830}, {"measurement": "RLU", "setting": "[4]", "value": -3270}, {"measurement": "RLU", "setting": "[5]", "value": -2940}, {"measurement": "RLU", "setting": "[6]", "value": -333}, {"measurement": "RLU", "setting": "[7]", "value": -1390}, {"measurement": "RLU", "setting": "[8]", "value": 1880}, {"measurement": "RLU", "setting": "[9]", "value": -212}, {"measurement": "RLU", "setting": "[10]", "value": -607}, {"measurement": "RLU", "setting": "[11]", "value": 1900}, {"measurement": "RLU", "setting": "[12]", "value": -383}, {"measurement": "RLU", "setting": "[13]", "value": -1200}, {"measurement": "RLU", "setting": "[14]", "value": 5570}, {"measurement": "RLU", "setting": "[15]", "value": 86500}, {"measurement": "RLU", "setting": "[16]", "value": 8750}, {"measurement": "RLU", "setting": "[17]", "value": 583}, {"measurement": "RLU", "setting": "[18]", "value": -133}, {"measurement": "RLU", "setting": "[19]", "value": -6780}, {"measurement": "RLU", "setting": "[20]", "value": 2040}, {"measurement": "RLU", "setting": "[21]", "value": -7370}, {"measurement": "RLU", "setting": "[22]", "value": -270}, {"measurement": "RLU", "setting": "[23]", "value": -3210}, {"measurement": "RLU", "setting": "[24]", "value": 3310}, {"measurement": "RLU", "setting": "[25]", "value": 4940}, {"measurement": "RLU", "setting": "[26]", "value": -14500}, {"measurement": "RLU", "setting": "[27]", "value": -566}, {"measurement": "RLU", "setting": "[28]", "value": 375}, {"measurement": "RLU", "setting": "[29]", "value": -390}, {"measurement": "RLU", "setting": "[30]", "value": 83.2}, {"measurement": "RLU", "setting": "[31]", "value": 620}, {"measurement": "RLU", "setting": "[32]", "value": -1530}, {"measurement": "RLU", "setting": "[33]", "value": -471}, {"measurement": "RLU", "setting": "[34]", "value": 390}, {"measurement": "RLU", "setting": "[35]", "value": -238}]}
